# Measured values: PubChem BioAssay (NCI)
#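 All cell lines were grown in 96-well plates and treated with compound for 48 hours. The concentration for 50% growth inhibition is given as GI50. The concentration for full growth arrest is given as TGI.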
# How the values were obtained:
# Experiment in all cases: NCI-60 cell line screen, 48 h
# HL-60(TB) leukemia = system: HL-60(TB) leukemia
# K-562 leukemia = system: K-562 leukemia
# MCF7 breast = system: MCF7 breast
# HS 578T breast = system: HS 578T breast
# NCI-H522 lung = system: NCI-H522 lung
# OVCAR-5 ovarian = system: OVCAR-5 ovarian
# HT29 colon = system: HT29 colon
# EKVX NSCLC = system: EKVX NSCLC
# UACC-62 melanoma = system: UACC-62 melanoma
# HOP-92 NSCLC = system: HOP-92 NSCLC
Structure (SMILES),GI50 (HL-60(TB) leukemia) [µM],TGI (HL-60(TB) leukemia) [µM],GI50 (K-562 leukemia) [µM],TGI (K-562 leukemia) [µM],GI50 (MCF7 breast) [µM],TGI (MCF7 breast) [µM],GI50 (HS 578T breast) [µM],TGI (HS 578T breast) [µM],GI50 (NCI-H522 lung) [µM],GI50 (OVCAR-5 ovarian) [µM],TGI (OVCAR-5 ovarian) [µM],GI50 (HT29 colon) [µM],TGI (HT29 colon) [µM],GI50 (EKVX NSCLC) [µM],TGI (EKVX NSCLC) [µM],GI50 (UACC-62 melanoma) [µM],TGI (UACC-62 melanoma) [µM],GI50 (HOP-92 NSCLC) [µM],TGI (HOP-92 NSCLC) [µM],TGI (NCI-H522 lung) [µM]
COc1ccc(C(=O)c2cc(OC)c(OC)c(OC)c2)cc1O,0.0103,0.0557,< 0.01,> 100,0.0327,> 100,0.028,> 100,< 0.0164,1.6,> 100,1.96,> 49.5,0.791,> 100,1.1,> 100,0.539,> 100,–
C=C1C(=O)O[C@@H]2C[C@@H](C)[C@@H]3[C@@H](OC4OC(COC(C)=O)C(O)C(O)C4O)CC(=O)[C@@]3(C)C[C@H]12 (some centres undefined),–,–,–,3.78,–,2.19,–,> 100,–,–,8.07,–,2.93,–,7.6,–,2.98,–,2.15,0.301
c1cncc(C(Nc2cccc3cccnc23)Nc2cccc3cccnc23)c1,–,> 100,–,> 100,–,> 100,–,> 100,–,–,> 100,–,> 100,–,> 100,–,> 100,–,> 100,> 100
CCOC(=O)C#Cc1ccc(C#CC(=O)OCC)cc1,–,6.34,–,–,–,10.6,–,29,–,–,> 21.8,–,5.27,–,> 24.7,–,> 23.4,–,> 31.7,–
COc1cc(-c2cc(-c3nc4ccccc4[nH]3)[nH]n2)cc(OC)c1OC,2.54,10.5,3.08,> 100,2.79,10.3,6.89,> 100,1.87,13,32.7,7.16,51.2,–,–,1.64,4.66,–,–,8.81
O=C(Nc1ccc(Nc2ccncc2)cc1)c1ccc(Nc2ccnc3ccc([N+](=O)[O-])cc23)cc1,> 100,> 100,> 100,> 100,> 100,> 100,> 100,> 100,> 100,> 100,> 100,> 100,> 100,> 100,> 100,68.1,> 100,> 100,> 100,> 100
COc1ccc(/C=C(\C#N)c2cc(OC)c3c(c2)OCO3)cc1,0.0128,54.7,< 0.01,> 100,< 0.0118,19.8,0.01,39.1,< 0.01,0.0797,80.9,< 0.01,0.694,1.98,> 100,< 0.01,> 100,8.09,52.2,–
CNC1NC(=O)c2ccccc2N1Cc1ccc(F)cc1 (centres undefined),–,> 100,–,> 100,–,> 100,–,> 100,–,–,> 100,–,> 100,–,> 100,–,> 100,–,> 100,> 100
COc1ccc(C(=O)/C=C/c2cc(C(=O)c3cc(OC)c(OC)c(OC)c3)ccc2OC)cc1,–,–,2.86,> 100,3.05,> 100,4.3,> 100,–,–,–,–,–,–,–,–,–,5.81,58.9,–
COC[C@H]1OC(=O)c2coc3c2[C@@]1(C)C1=C(C3=O)[C@@H]2CCC(=O)[C@@]2(C)C[C@H]1OC(C)=O,2.98,53.7,–,> 100,–,> 100,0.341,6.9,–,–,> 100,–,97.8,–,> 100,–,17.5,–,–,> 71.9
CCC(C)/C=C(C)/C=C/C(=O)c1c(O)c(-c2ccc(O)cc2)c[nH]c1=O (centres undefined),2.43,21.2,3.39,15.1,2.9,15,2.49,9.56,3.3,6.1,23.5,3.77,14.6,4.08,17.6,3.73,15.9,–,–,10.8
CN(C)CC#Cc1cccc(C(=O)c2cnn(-c3ccc(F)cc3)c2N)c1,> 25,> 25,> 17.8,> 25,> 25,> 25,> 19.1,> 25,> 25,> 25,> 25,> 19.5,> 25,–,–,> 25,> 25,> 17.7,> 25,> 25
CO/N=C1/NC(=O)/C(=C/c2ccc3ncccc3c2)S1,13.8,> 25,> 25,> 25,4.45,> 25,4.06,17.5,12.3,6.16,> 25,16.8,> 25,–,–,8.06,> 25,4.48,> 25,> 25
NC1CCC[C@@H](O)[C@H]1O (some centres undefined),–,> 100,–,> 100,–,> 100,–,> 100,–,–,> 100,–,> 100,–,> 100,–,> 100,–,–,> 100
C#CC[C@H](c1nc2cc(Cl)ccc2c(=O)n1Nc1ccccc1)N(CCCN)C(=O)c1cccc(Cl)c1F,0.13,0.605,0.0968,1.85,0.0337,1.36,0.162,1.19,0.0898,0.419,2.56,0.337,1.32,–,–,0.636,2,0.179,1.65,0.935
O=C(Nc1cc(Cl)ccc1O)c1cccc(NC2=C(Cl)C(=O)N(Cc3ccccc3)C2=O)c1,15.9,38.7,15.2,38.5,13.3,36.9,20.9,49.9,11.2,45.8,> 100,35.9,> 100,> 100,> 100,31.7,> 100,–,–,26.3
CN(C)CCNC(=O)c1cc([N+](=O)[O-])ccn1,–,46.4,–,52.2,–,31.3,–,> 100,–,–,> 100,–,48.1,–,> 100,–,42.3,–,–,37.2
Cn1c2ccc([N+](=O)[O-])cc2c(=O)c2c(O)cc(O)cc21,–,> 100,–,> 100,–,> 100,–,> 100,–,–,> 100,–,–,–,> 100,–,> 100,–,96.3,24
O=[N+]([O-])c1cc(Br)cc2c1[nH]c1ccc(Br)cc12,–,–,–,–,6.34,> 100,2.25,20,3.09,15.5,> 100,4.03,> 100,3.19,> 100,22.1,> 100,7.85,36.5,40.3
COc1ccc(C2=C(c3cn(C)c4ccccc34)C(=O)NC2=O)cc1OC,6.27,17.2,4.92,> 25,5.75,> 25,3.85,> 20.6,7.65,> 25,> 25,6.78,> 25,–,–,8.12,> 25,> 12.4,> 25,> 21.9
COc1cc(-c2cn(-c3ccc(Cl)cc3)c(=O)[nH]2)cc(OC)c1OC,–,–,52.1,> 100,> 100,> 100,> 100,> 100,> 100,> 100,> 100,> 100,> 100,> 100,> 100,> 100,> 100,> 100,> 100,> 100
Cc1ccc2c(=O)[nH]sc2c1,–,30.8,–,47.2,–,36.1,–,40,–,–,> 100,–,32.3,–,30.6,–,41.2,–,–,8.26
Cc1cc(-c2nc3ccc(O)cc3s2)ccc1N,–,–,36.4,> 100,56.5,> 100,95.5,> 100,30,82.6,> 100,37.5,> 100,4.07,58.3,57.7,> 100,> 100,> 100,> 100
Cc1cc(S(=O)(=O)NC#N)c(S/C(=N\Nc2ccc([N+](=O)[O-])cc2)c2ccccc2)cc1Cl,21.6,83.1,15.2,42.9,14.7,28.3,16.2,43.2,14.6,15.7,32.4,–,–,17.2,34.7,21.5,51.8,10.7,32.7,32.6
